Data: ChEMBL document CHEMBL1135342, “Synthesis and evaluation of thymidine-5'-O-monophosphate analogues as inhibitors of Mycobacterium tuberculosis thymidylate kinase” (Bioorg Med Chem Lett, 2002)

Each compound was assayed against T1, Thymidylate kinase (Mycobacterium tuberculosis, UniProt P9WKE1) (assay: Compound was tested for binding affinity against Mycobacterium tuberculosis thymidine monophosphate kinase).
T1 sequence (P9WKE1 whole entry): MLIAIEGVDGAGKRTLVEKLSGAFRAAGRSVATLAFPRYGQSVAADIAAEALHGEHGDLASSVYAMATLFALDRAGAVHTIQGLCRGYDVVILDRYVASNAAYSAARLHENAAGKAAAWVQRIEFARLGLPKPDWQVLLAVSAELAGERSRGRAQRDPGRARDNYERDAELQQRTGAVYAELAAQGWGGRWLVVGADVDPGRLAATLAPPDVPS
Work on Cc1cn([C@@H]2O[C@H](COP(=O)(O)O)[C@@H](O)[C@H]2F)c(=O)[nH]c1=O yielded a Ki of 43 µM.
Cc1cn([C@H]2C[C@H](N=[N+]=[N-])[C@@H](COP(=O)(O)O)O2)c(=O)[nH]c1=O [AZIDOTHYMIDINE MONOPHOSPHATE] showed a Ki of 10 µM.
Compound Cc1cn([C@H]2C[C@H](N)[C@@H](COP(=O)(O)O)O2)c(=O)[nH]c1=O has a Ki of 235 µM.
For Cc1cn([C@@H]2O[C@H](COP(=O)(O)O)[C@@H](N)[C@H]2O)c(=O)[nH]c1=O, the Ki was 27 µM.
Work on Cc1cn([C@@H]2O[C@H](COP(=O)(O)O)[C@@H](O)[C@H]2N)c(=O)[nH]c1=O yielded a Ki of 55 µM.
For Cc1cn([C@@H]2O[C@H](COP(=O)(O)O)[C@@H](O)[C@H]2Cl)c(=O)[nH]c1=O, the Ki was 19 µM.
